Measurements: US8916206B2, “Nanoparticles containing water-soluble non-peptide low-molecular weight drug” (LTT Bio-Pharma Co., Ltd., priority 2005, dated 2014)

What was measured:
adjuvant arthritis rats [1] = assay: Suppression of adjuvant arthritis, Example 5 (left hind leg volume, water displacement); assay type: in vivo, Lewis rats; conditions: average of 4 rats
Procedure: (§1) Fifty microliters of an incomplete Freund's adjuvant solution (DIFCO) containing 6 mg/mL of M. Butyricum Dessicated (DIFCO) was subcutaneously injected into the left hind paw of 7-week-old Lewis rats, weighing 130 to 160 g, under anesthesia with ether. The animals were divided into groups so that there is no significant difference in the volume of the left hind leg between the groups. 14 days after administration of M. Butyricum, one group was intravenously administered a single dose of the nanoparticles of the present invention encapsulating betamethasone phosphate (equivalent to 50 μg betamethasone). As controls, other groups were intravenously administered the same amount of an aqueous betamethasone phosphate solution or the PLA nanoparticles encapsulating betamethasone phosphate (nanoparticles described in Example 2 of International Patent Publication No. WO 2004/84871), each administered in a single dose.
(§2) The ability of the nanoparticles to suppress arthritic inflammation was analyzed by the water displacement technique by measuring the volume of the left hind legs before and after the administration of the nanoparticles.
(§3) Inflammation rate shown in Table 6 was determined with respect to the leg volume of the control group (=100) and calculated by the following equation: Inflammation rate(%)=(measured leg volume−leg volume without adjuvant)/(initial leg volume−leg volume without adjuvant)×100
Each inflammation rate is the average of 4 rats.

adjuvant arthritis rats [2] = assay: Suppression of adjuvant arthritis, Example 9 (left hind leg volume, water displacement); assay type: in vivo, Lewis rats; conditions: average of 7 rats
Procedure: as §1, §2, §3
As in Example 5, the ability of nanoparticles to suppress adjuvant arthritis was evaluated. Each inflammation rate is the average of 7 rats. Nanoparticles of the present invention containing betamethasone phosphate equivalent to 40 μg betamethasone were intravenously administered in a single dose.
As a control, another group of rats was intravenously administered the same amount of an aqueous solution of betamethasone phosphate in a single dose.

## C[C@H]1C[C@H]2[C@@H]3CCC4=CC(=O)C=C[C@]4(C)[C@@]3(F)[C@@H](O)C[C@]2(C)[C@@]1(O)C(=O)COP(=O)(O)O [betamethasone phosphate]
Adjuvant arthritis rats [1]; 1 day after single i.v. dose equivalent to 50 μg betamethasone
  Inflammation rate: 83%
Adjuvant arthritis rats [1]; 2 days after single i.v. dose equivalent to 50 μg betamethasone
  Inflammation rate: 80%
Adjuvant arthritis rats [1]; 3 days after single i.v. dose equivalent to 50 μg betamethasone
  Inflammation rate: 82%
Adjuvant arthritis rats [1]; 4 days after single i.v. dose equivalent to 50 μg betamethasone
  Inflammation rate: 83%
Adjuvant arthritis rats [1]; 6 days after single i.v. dose equivalent to 50 μg betamethasone
  Inflammation rate: 84%
Adjuvant arthritis rats [1]; 8 days after single i.v. dose equivalent to 50 μg betamethasone
  Inflammation rate: 81%
Adjuvant arthritis rats [2]; 1 day after single i.v. dose equivalent to 40 μg betamethasone
  Inflammation rate: 81%
Adjuvant arthritis rats [2]; 2 days after single i.v. dose equivalent to 40 μg betamethasone
  Inflammation rate: 83%
Adjuvant arthritis rats [2]; 3 days after single i.v. dose equivalent to 40 μg betamethasone
  Inflammation rate: 83%
Adjuvant arthritis rats [2]; 4 days after single i.v. dose equivalent to 40 μg betamethasone
  Inflammation rate: 78%
Adjuvant arthritis rats [2]; 5 days after single i.v. dose equivalent to 40 μg betamethasone
  Inflammation rate: 78%
Adjuvant arthritis rats [2]; 7 days after single i.v. dose equivalent to 40 μg betamethasone
  Inflammation rate: 79%
Adjuvant arthritis rats [2]; 9 days after single i.v. dose equivalent to 40 μg betamethasone
  Inflammation rate: 79%
